Reference: ChEMBL document CHEMBL1142460, “2,4(5)-Diarylimidazoles: synthesis and biological evaluation of a new class of sodium channel blockers against hNa(v)1.2” (Bioorg Med Chem Lett, 2008)

Columns and labels:
[1] = target: Sodium channel protein type 2 subunit alpha (Homo sapiens) (UniProt Q99250); assay: Inhibition of Nav1.2 channel in HEK cells at 10 uM by patch clamp technique; assay type: cell-based; design: scale not given: the % may be the effect or the level left; conditions: HEK293
[2] = target: Sodium channel protein type 2 subunit alpha (Homo sapiens) (UniProt Q99250); assay: Inhibition of Nav1.2 channel in HEK cells at 100 uM by patch clamp technique; assay type: cell-based; design: scale not given: the % may be the effect or the level left; conditions: HEK293

Chain of Sodium channel protein type 2 subunit alpha (Homo sapiens) (Q99250 whole entry, looked up): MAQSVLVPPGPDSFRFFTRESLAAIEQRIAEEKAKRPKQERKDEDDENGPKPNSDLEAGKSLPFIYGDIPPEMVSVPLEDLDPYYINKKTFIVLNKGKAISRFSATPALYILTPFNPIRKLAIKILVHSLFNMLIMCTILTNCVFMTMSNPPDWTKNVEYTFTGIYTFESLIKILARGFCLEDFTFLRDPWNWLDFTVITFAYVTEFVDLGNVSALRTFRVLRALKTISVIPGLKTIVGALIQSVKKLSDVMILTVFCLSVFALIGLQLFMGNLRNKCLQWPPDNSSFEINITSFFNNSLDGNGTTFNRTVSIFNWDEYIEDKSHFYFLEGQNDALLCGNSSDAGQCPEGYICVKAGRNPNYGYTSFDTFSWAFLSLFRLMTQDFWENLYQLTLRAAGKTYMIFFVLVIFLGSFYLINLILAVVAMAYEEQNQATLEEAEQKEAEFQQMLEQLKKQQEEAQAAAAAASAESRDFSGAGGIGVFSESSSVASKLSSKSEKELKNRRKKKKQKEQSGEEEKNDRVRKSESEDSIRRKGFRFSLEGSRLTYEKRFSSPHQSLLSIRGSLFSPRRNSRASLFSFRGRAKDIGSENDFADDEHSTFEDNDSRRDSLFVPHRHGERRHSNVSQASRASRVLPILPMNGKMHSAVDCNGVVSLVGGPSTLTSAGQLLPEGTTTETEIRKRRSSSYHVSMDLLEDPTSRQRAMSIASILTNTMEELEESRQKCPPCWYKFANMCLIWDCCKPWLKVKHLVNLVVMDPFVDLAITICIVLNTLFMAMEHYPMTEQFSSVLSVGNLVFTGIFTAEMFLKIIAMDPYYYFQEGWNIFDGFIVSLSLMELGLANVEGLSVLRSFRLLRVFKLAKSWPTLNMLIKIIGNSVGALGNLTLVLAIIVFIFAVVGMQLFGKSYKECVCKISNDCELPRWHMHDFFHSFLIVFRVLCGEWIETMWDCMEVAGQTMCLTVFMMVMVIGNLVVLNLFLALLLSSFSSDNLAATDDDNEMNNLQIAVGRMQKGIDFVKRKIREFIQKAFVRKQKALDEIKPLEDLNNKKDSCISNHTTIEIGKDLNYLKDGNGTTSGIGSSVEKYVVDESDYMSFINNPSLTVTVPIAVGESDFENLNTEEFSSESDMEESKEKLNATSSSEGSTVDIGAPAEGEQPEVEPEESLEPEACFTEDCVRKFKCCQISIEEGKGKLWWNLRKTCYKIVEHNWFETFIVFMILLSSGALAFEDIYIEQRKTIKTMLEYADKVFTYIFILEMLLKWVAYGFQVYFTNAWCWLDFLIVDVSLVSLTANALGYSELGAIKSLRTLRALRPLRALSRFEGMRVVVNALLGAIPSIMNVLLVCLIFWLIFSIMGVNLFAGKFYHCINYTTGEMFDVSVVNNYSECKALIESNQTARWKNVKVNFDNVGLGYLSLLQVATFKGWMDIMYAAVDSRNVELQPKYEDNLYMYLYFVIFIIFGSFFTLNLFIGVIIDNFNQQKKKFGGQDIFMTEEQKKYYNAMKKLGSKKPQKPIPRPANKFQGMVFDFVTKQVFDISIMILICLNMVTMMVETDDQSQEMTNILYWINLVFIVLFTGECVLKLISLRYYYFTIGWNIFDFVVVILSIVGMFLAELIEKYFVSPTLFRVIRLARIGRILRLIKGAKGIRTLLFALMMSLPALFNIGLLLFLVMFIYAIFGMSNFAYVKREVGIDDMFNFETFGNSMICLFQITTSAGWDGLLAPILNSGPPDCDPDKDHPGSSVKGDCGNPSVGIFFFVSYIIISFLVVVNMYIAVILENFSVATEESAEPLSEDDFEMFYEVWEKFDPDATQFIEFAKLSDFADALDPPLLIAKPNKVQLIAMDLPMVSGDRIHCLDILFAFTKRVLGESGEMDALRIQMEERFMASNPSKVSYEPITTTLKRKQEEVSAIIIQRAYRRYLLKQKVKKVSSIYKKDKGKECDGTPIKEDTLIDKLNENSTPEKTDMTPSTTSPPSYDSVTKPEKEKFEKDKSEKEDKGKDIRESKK

Compound | Activity [1] [%] | Activity [2] [%]
c1ccc(-c2c[nH]c(-c3cccnc3)n2)cc1 | 4.7 | 22.5
c1ccc(-c2c[nH]c(-c3ccoc3)n2)cc1 | 11.9 | 27.3
c1ccc(-c2c[nH]c(-c3ccsc3)n2)cc1 | 5.1 | 70.9
c1ccc(-c2c[nH]c(-c3ccco3)n2)cc1 | 2.7 | 37.7
c1ccc(-c2c[nH]c(-c3ccccc3)n2)cc1 | 7.8 | 80.5
O=C1NC(=O)C(c2ccccc2)(c2ccccc2)N1 | 10.6 | 21.2
Nc1nnc(-c2cccc(Cl)c2Cl)c(N)n1 | 12.1 | 35.1
c1ccc(-c2c[nH]c(-c3cc4ccccc4o3)n2)cc1 | 37.7 | 72.4
c1ccc(-c2c[nH]c(C3CCCCC3)n2)cc1 | 26.7 | 91.5
c1ccc(-c2c[nH]c(-c3ccncc3)n2)cc1 | 8 | 40.7
